Results on two compounds are retold here after US20160151318A1, “USE OF NITRATED LIPIDS FOR TREATMENT OF LIPID DISORDERS AND OBESITY, AND LIPID- AND OBESITY-RELATED CONDITIONS” (THE UNIVERSITY OF UTAH RESEARCH FOUNDATION, priority 2008, published 2016).

In test [1] the test system is Zucker obese rats. In words: Chronic infusion of OA-NO2 or OA in Zucker obese rats (obesity, hyperlipidemia, kidney injury). The test is classed as in vivo, rat. To be noted: 7.5 μg/kg/day via osmotic mini-pump; for reduction of proteinuria (urinary protein excretion): 24-hour urine (FIG. 7); for plasma free fatty acid levels (non-esterified fatty acid): fasted (FIG. 3B); for plasma cholesterol levels: fasted (FIG. 4); for plasma HDL levels: fasted (FIG. 5A); for body weight gain: male 4-mo-old Zucker obese rats, vs. vehicle control (FIG. 1). How it is done:
Male 4-month-old Zucker obese and Zucker diabetic rats were from Charles River Laboratory (Wilmington, Mass.). All animals were housed in an air-conditioned room with a 12-hour light/dark cycle. All procedures and protocols were in accordance with guidelines set by the Laboratory Animal Care Committee at the University of Utah. Two strains of Zucker rats, obese and diabetes (ZDF) (Charles River), were treated with vehicle (ethanol), OA-NO2 at 7.5 μg/kg/d, or OA at 7.5 μg/kg/d via an osmotic mini-pump. Under isoflurane anesthesia, the mini-pump was implanted under the skin of the neck area. Body weight, food intake, and collections of blood and urine samples were determined before and after treatment. Animals were fasted from 6:00 pm to 9:00 am before blood sampling. Blood sampling was conducted by making a small cut (˜2 mm) in the tail using razor blade. 24-hour urine was collected using metabolic cages. Adult Zucker obese rats develop severe obesity and hyperlipidemia but are relatively resistant to diabetes. Therefore, these animals were used for testing the weight-loss and lipid lowering effects of OA-NO2. To determine whether these effects are directly attributable to the nitration of the fatty acid, the parent fatty acid (OA) was used as a control. Starting from 4 mo of age, Zucker obese rats were chronically infused for 2 weeks with vehicle, OA-NO2 (9-nitrooleic acid and 10-nitrooleic acid are purchased from Cayman Chemical, Ann Arbor, MI and used as an 1:1 mixture), or OA each at 7.5 μg/kg/day via an osmotic mini-pump. Parameters including body weight, food intake, the lipid profile, oxidative stress, and urinary protein excretion were determined. Animals were fasted from 6:00 pm to 9:00 am before blood sampling.

Test [2] has as its system Zucker diabetic rats. Briefly: Chronic infusion of OA-NO2 in Zucker diabetic rats (ZDF strain). The test is classed as in vivo, rat. To be noted: 7.5 μg/kg/d via osmotic mini-pumps, 1 week, fasted. The method, then: Male 4-month-old Zucker obese and Zucker diabetic rats were from Charles River Laboratory (Wilmington, Mass.). All animals were housed in an air-conditioned room with a 12-hour light/dark cycle. All procedures and protocols were in accordance with guidelines set by the Laboratory Animal Care Committee at the University of Utah.
Two strains of Zucker rats, obese and diabetes (ZDF) (Charles River), were treated with vehicle (ethanol), OA-NO2 at 7.5 μg/kg/d, or OA at 7.5 μg/kg/d via an osmotic mini-pump. Under isoflurane anesthesia, the mini-pump was implanted under the skin of the neck area. Body weight, food intake, and collections of blood and urine samples were determined before and after treatment. Animals were fasted from 6:00 pm to 9:00 am before blood sampling. Blood sampling was conducted by making a small cut (˜2 mm) in the tail using razor blade. 24-hour urine was collected using metabolic cages.
To evaluate the efficacy of OA-NO2 for treatment of diabetes, Zucker diabetic rats were used. These animals develop severe hyperglycemia and hyperinsulinemia, the two major parameters of type 2 diabetes.

Turning to `CCCCCCCC/C=C\CCCCCCCC(=O)O` [OA, Oleic acid, reference compound], in test [1] (Zucker obese rats, 2 weeks), the “reduction of proteinuria (urinary protein excretion)” value was “no significant effect”, the “plasma free fatty acid levels (non-esterified fatty acid)” value is recorded as “lack of an effect”, the plasma cholesterol levels entry was “unaffected” and the “plasma HDL levels” value is “ineffective”. Besides, the body weight gain result in test [1] (2 weeks) is on record as “not different”.

As to nitrooleic acid [OA-NO2], in test [1] (Zucker obese rats, 2 weeks (FIG. 6)), the “plasma TBARS (index of systemic oxidative stress), increase in obese vs. lean rats” value is “significantly attenuated”. Also, in test [1] (Zucker obese rats, 2 weeks), the “reduction of proteinuria (urinary protein excretion)” value came to 50%, the “plasma free fatty acid levels (non-esterified fatty acid)” value is given as “almost completely normalized”, the plasma cholesterol levels result was “unaffected” and the “plasma HDL levels” value is on record as “significantly increased”. For the same compound, the plasma triglyceride entry in test [1] (Zucker obese rats, 2 weeks, fasted, vs. vehicle control (FIG. 3A)) is listed as “significant triglyceride-lowering effect”. Besides, in test [1] (Zucker obese rats, 2 weeks, vs. vehicle (FIG. 2)), the food intake entry was “significantly reduced”. Besides, in test [1] (2 weeks), the body weight gain result is “less than that in the vehicle control”. In addition, the “hyperglycemia (plasma glucose)” value in test [2] (vs. Day 0 (FIG. 8A)) is “significantly attenuated”. Further, the plasma insulin levels result in test [2] (vs. Day 0 (FIG. 8B)) is on record as “tended to reduce”.
